Key:
Type in all cases: cell-based
human TLR7 = biological target: T1, human TLR7 (Homo sapiens, UniProt Q9NYK1); experiment: TLR7 inhibition reporter assay (HEK-Blue cells, SEAP reporter, gardiquimod stimulation); settings: HEK-Blue cells overexpressing human TLR7, SEAP reporter, gardiquimod 7.5 μM
T1 construct: host or cells: HEK-Blue cells (HEK293-derived reporter line)
T1 sequence (Q9NYK1 27-1049): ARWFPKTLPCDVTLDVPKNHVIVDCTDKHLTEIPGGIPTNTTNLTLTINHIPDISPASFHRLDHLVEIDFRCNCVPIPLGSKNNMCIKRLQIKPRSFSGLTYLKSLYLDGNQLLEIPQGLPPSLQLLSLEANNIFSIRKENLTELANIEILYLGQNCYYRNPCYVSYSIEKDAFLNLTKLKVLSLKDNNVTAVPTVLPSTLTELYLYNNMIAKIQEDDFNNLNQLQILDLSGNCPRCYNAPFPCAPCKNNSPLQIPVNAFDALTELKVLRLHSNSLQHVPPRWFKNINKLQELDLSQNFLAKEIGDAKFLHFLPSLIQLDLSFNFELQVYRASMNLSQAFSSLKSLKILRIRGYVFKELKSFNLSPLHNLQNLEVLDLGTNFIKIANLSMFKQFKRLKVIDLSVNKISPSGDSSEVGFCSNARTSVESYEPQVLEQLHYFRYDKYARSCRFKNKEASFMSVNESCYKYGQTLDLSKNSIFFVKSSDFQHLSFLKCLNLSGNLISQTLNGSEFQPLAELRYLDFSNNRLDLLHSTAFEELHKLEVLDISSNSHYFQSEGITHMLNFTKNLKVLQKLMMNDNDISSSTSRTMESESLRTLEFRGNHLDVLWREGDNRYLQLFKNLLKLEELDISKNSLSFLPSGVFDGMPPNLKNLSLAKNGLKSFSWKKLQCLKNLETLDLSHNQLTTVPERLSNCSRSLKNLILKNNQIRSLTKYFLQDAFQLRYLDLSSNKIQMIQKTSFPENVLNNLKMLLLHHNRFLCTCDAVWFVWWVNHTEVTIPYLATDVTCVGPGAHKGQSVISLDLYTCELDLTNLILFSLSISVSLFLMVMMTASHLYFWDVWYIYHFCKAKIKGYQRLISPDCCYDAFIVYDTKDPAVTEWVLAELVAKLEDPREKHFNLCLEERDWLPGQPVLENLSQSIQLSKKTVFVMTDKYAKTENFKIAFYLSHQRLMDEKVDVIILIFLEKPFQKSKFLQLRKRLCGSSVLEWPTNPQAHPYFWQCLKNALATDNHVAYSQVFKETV
Procedure, shortened: (§1)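 After 22 h at 37 °C, SEAP secretion was measured from human TLR7-, TLR8- or TLR9-expressing HEK-Blue reporter cells given compound (0.05 nM–50 μM) 30 min before agonist: 7.5 μM gardiquimod, 15.9 μM R848 or 5 nM ODN2006 respectively. Percent inhibition referenced to agonist-plus-DMSO and known-inhibitor wells.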

human TLR8 = biological target: T2, human TLR8 (Homo sapiens, UniProt Q9NR97); experiment: TLR8 inhibition reporter assay (HEK-Blue cells, SEAP reporter, R848 stimulation); settings: HEK-Blue cells overexpressing human TLR8, SEAP reporter, R848 15.9 μM
T2 construct: host or cells: HEK-Blue cells (HEK293-derived reporter line)
T2 sequence (Q9NR97 27-1041): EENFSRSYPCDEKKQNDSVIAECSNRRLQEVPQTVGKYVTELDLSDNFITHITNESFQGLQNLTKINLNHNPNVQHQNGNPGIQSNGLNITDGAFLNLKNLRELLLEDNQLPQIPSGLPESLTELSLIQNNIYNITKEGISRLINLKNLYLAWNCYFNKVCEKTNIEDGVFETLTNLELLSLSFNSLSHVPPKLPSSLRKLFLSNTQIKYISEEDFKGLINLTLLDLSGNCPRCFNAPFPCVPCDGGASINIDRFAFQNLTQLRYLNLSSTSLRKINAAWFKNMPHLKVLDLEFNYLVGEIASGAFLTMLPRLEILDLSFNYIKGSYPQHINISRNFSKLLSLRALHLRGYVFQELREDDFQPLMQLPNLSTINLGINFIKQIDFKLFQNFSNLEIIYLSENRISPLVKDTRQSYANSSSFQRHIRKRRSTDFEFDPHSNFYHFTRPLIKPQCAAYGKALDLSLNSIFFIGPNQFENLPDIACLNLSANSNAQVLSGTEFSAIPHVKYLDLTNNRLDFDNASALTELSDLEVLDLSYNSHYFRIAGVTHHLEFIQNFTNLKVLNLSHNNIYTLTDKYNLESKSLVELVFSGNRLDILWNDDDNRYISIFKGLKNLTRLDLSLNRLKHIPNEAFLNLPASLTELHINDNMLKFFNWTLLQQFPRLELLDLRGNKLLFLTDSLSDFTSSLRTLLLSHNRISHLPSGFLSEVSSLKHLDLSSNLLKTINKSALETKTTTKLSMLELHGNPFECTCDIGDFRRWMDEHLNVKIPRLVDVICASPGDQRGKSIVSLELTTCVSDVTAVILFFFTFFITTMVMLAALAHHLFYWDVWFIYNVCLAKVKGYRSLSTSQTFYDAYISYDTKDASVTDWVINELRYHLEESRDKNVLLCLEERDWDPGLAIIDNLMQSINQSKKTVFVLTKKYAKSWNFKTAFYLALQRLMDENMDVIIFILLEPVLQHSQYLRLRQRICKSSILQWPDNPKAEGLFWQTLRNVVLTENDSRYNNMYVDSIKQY
Procedure, shortened: as §1

human TLR9 = biological target: T3, human TLR9 (Homo sapiens, UniProt Q9NR96); experiment: TLR9 inhibition reporter assay (HEK-Blue cells, SEAP reporter, ODN2006 stimulation); settings: HEK-Blue cells overexpressing human TLR9, SEAP reporter, ODN2006 5 nM
T3 construct: host or cells: HEK-Blue cells (HEK293-derived reporter line)
T3 sequence (Q9NR96 26-1032): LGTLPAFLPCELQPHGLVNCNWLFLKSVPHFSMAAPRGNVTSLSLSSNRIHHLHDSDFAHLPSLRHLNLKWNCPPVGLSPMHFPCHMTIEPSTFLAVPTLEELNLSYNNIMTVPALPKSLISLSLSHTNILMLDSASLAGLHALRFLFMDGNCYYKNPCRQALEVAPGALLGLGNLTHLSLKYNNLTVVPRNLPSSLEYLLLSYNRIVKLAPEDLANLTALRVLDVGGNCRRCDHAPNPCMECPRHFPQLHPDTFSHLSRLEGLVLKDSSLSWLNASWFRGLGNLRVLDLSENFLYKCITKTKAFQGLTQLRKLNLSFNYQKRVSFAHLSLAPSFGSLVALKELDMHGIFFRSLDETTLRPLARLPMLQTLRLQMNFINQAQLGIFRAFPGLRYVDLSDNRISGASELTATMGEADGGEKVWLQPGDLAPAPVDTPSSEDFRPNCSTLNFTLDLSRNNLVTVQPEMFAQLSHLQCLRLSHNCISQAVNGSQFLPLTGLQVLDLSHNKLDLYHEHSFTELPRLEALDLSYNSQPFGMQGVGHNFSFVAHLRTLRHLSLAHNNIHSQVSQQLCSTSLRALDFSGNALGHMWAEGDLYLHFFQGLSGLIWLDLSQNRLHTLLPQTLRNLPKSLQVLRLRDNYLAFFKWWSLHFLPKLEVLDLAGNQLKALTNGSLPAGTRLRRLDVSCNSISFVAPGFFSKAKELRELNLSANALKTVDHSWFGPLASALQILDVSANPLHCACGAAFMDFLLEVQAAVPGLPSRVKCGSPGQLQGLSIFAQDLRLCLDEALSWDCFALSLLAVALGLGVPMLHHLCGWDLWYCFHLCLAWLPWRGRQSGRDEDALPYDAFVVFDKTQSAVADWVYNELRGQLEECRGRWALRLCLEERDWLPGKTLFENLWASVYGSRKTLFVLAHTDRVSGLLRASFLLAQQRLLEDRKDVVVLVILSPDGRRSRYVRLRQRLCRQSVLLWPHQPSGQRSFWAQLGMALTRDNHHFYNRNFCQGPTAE
Procedure, shortened: as §1

## COc1cc(-c2[nH]c3ccc(C4CCN(CC(=O)N(C)C)CC4)cc3c2C(C)C)c2ccccc2n1 [Example 340, 2-(4-(3-isopropyl-2-(2-5 methoxyquinolin-4-yl)-1H-indol-5-yl)piperidin-1-yl)-N,N-dimethylacetamide]
Human TLR7
  IC50: < 100 nM
Human TLR8
  IC50: 100 to 1000 nM
Human TLR9
  IC50: 1000 to 50000 nM

## COc1cc(-c2[nH]c3ccc(C4CCN(C(=O)CN(C)C)CC4)cc3c2C(C)C)cc2nccn12 [Example 501, 2-(dimethylamino)-1-(4-(3-isopropyl-2-(5-methoxyimidazo[1,2-a]pyridin-7-yl)-1H-indol-5-yl)piperidin-1-yl)ethan-1-one]
Human TLR7
  IC50: 100 to 1000 nM
Human TLR8
  IC50: 100 to 1000 nM
Human TLR9
  IC50: 100 to 1000 nM

## Cc1c(-c2[nH]c3ccc(C4CCN(C5CCOCC5)CC4)cc3c2C(C)C)c2cccnc2n1C [Example 691, 3-(3-isopropyl-5-(1-(tetrahydro-2H-pyran-4-yl)piperidin-4-yl)-1H-indol-2-yl)-1,2-dimethyl-1H-pyrrolo[2,3-b]pyridine]
Human TLR7
  IC50: < 100 nM
Human TLR8
  IC50: < 100 nM
Human TLR9
  IC50: 1000 to 50000 nM

## CC(C)c1c(-c2cn(C)c3ncccc23)[nH]c2ccc(C3CCN(C(=O)CN(C)C)CC3)cc12 [Example 463, 2-(dimethylamino)-1-(4-(3-isopropyl-2-(1-methyl-1H-pyrrolo[2,3-b]pyridin-3-yl)-1H-indol-5-yl)piperidin-1-yl)ethan-1-one]
Human TLR7
  IC50: < 100 nM
Human TLR8
  IC50: < 100 nM
Human TLR9
  IC50: 1000 to 50000 nM

## CC(C)c1c(-c2ccc3cnnn3c2)[nH]c2ccc(C3CCN(C4CCOCC4)CC3)cc12 [Example 695, 6-(3-isopropyl-5-(1-(tetrahydro-2H-pyran-4-yl)piperidin-4-yl)-1H-indol-2-yl)-[1,2,3]triazolo[1,5-a]pyridine]
Human TLR7
  IC50: 100 to 1000 nM
Human TLR8
  IC50: < 100 nM
Human TLR9
  IC50: 100 to 1000 nM

## CC(C)c1c(-c2cn(C)c3ncccc23)[nH]c2ccc(C3CCN(CC(N)=O)CC3)cc12 [Example 296, 2-(4-(3-isopropyl-2-(1-methyl-1H-pyrrolo [2,3-b]pyridin-3-yl)-1H-indol-5-yl)piperidin-1-yl)acetamide]
Human TLR7
  IC50: < 100 nM
Human TLR8
  IC50: < 100 nM
Human TLR9
  IC50: 1000 to 50000 nM

## Cc1nnn2ccc(-c3[nH]c4ccc(C5CCNCC5)cc4c3C(C)C)cc12 [Example 77, 5-(3-isopropyl-5-(piperidin-4-yl)-1H-indol-2-yl)-3-methyl-[1,2,3]triazolo[1,5-a]pyridine]
Human TLR7
  IC50: < 100 nM
Human TLR8
  IC50: < 100 nM
Human TLR9
  IC50: 100 to 1000 nM

## CC(C)c1c(-c2cnc3[nH]ncc3c2)[nH]c2ccc(C3CCN(C(=O)CN(C)C)CC3)cc12 [Example 562, 2-(dimethylamino)-1-(4-(3-isopropyl-2-(1H-pyrazolo[3,4-b]pyridin-5-yl)-1H-indol-5-yl)piperidin-1-yl)ethan-1-one]
Human TLR7
  IC50: < 100 nM
Human TLR8
  IC50: < 100 nM
Human TLR9
  IC50: 1000 to 50000 nM

## CNc1c[nH]c2nccc(-c3[nH]c4ccc(C5CCNCC5)cc4c3C)c12 [Example 210, N-methyl-4-(3-methyl-5-(piperidin-4-yl)-1H-indol-2-yl)-1H-pyrrolo[2,3-b]pyridin-3-amine]
Human TLR7
  IC50: 1000 to 50000 nM
Human TLR8
  IC50: 1000 to 50000 nM
Human TLR9
  IC50: 1000 to 50000 nM

## Cc1cc(-c2[nH]c3ccc(C4CCN(S(=O)(=O)CCO)CC4)cc3c2C(C)C)cn2nnnc12 [Example 616, 2-((4-(3-isopropyl-2-(8-methyltetrazolo[1,5-a]pyridin-6-yl)-1H-indol-5-yl)piperidin-1-yl)sulfonyl)ethan-1-ol]
Human TLR7
  IC50: < 100 nM
Human TLR8
  IC50: 100 to 1000 nM
Human TLR9
  IC50: > 50000 nM
